Molecular target: T1, endogenous MFSD7C and HMOX1 (Mus musculus, UniProt Q91X85)
T1 construct: Co-IP and immunoblotting analysis of endogenous MFSD7C with ATP5h, SERCA2b and HMOX1 in bone marrow-derived macrophages; endogenous in cells; host or cells: bone marrow-derived macrophages from Mfsd7c fl/fl C57BL/6 mice
Test: Co-IP of endogenous MFSD7C and HMOX1 in bone marrow-derived macrophages
Format: cell-based
Conditions: heme treatment
Experimental: NTD was incubated with heme and run on Superdex 75 gel filtration column. The flow through was measured for absorbance at 230 nm (gray), 380 nm (blue), and 415 nm (green). Absorbance intensity was normalized to maximum value. […] Heme (100 μM) absorption was set to zero. […] Wildtype (WT) and mutant (Mut) peptide sequences are shown. […] Shown are representative data from five separate experiments. […] Shown are immunoblots of MFSD7C, ATP5h, SERCA2b, and HMOX1 on whole lysates or immunoblots of MFSD7C on anti-ATP5h, anti-SERCA2b and anti-HMOX1 immunoprecipitates. Representative data from one from three experiments are shown. […] Shown are representative data from three separate experiments. WCE: whole cell extract, Sup: supernatant, Mito: 10,000 g mitochondrial fraction. […] THP-1 cells were stained with MitoTracker (green), fixed and permeabilized, and then stained with rabbit polyclonal antibody specific for the C-terminus of MFSD7C, followed with Alexa Fluor® 594-labelled goat anti-rabbit antibody (red). Nuclei were labeled using DAPI (blue). […]
Differentiation of bone marrow-derived macrophage (BMDM). […] Cells were resuspended in DMEM media containing 10% FBS, 2 mM L-glutamine, 2 mM pyruvate, non-essential amino acids (100 μM each), 0.55 mM 2-mercaptoethanol, penicillin/streptomycin), passed through a 40 μm Falcon cell strainer (VWR) to remove large aggregates, and counted. […]

T1 sequence (Q91X85 whole entry): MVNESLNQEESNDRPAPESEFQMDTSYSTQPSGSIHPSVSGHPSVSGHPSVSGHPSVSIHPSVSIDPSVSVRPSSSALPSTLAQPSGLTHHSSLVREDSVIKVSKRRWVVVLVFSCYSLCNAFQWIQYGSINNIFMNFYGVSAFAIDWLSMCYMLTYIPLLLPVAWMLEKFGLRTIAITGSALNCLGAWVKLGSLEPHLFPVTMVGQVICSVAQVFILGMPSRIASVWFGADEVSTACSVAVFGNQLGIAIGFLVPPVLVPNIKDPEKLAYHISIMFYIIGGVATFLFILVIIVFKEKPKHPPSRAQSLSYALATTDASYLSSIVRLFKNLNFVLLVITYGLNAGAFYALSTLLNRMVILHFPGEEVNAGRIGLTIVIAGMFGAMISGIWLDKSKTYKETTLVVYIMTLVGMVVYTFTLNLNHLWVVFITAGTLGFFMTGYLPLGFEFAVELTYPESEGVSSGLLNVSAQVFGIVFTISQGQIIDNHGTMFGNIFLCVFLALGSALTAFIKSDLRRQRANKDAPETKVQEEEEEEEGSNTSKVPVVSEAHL
T1 sequence (P14901 whole entry partner): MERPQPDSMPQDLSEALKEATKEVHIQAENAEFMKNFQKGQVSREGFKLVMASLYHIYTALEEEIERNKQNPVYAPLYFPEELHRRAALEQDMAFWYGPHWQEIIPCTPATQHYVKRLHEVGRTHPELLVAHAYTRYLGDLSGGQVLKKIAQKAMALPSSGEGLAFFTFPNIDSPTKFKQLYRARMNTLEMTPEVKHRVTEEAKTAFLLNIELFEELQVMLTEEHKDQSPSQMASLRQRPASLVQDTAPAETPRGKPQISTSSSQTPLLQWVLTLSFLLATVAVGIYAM

C=CC1=C(C)c2cc3[n-]c(cc4[n-]c(cc5nc(cc1n2)C(C)=C5C=C)c(C)c4CCC(=O)O)c(CCC(=O)O)c3C.[Fe+2] [heme]
interactions between endogenous MFSD7C and HMOX1 (co-IP): enhanced
